Experimental data as given in US6579896B2, “Method for treating allergies using substituted pyrazoles” (Ortho-McNeil Pharmaceutical, Inc., priority 2000, dated 2003).

Legend:
[1] = test system: PBMC from HDM-allergic donors (allergen-specific CD4 T cells); test: Ex vivo human T cell-proliferation assay, house dust mite extracts (Der p, Der f); type: cell-based; conditions: PBMC of four HDM-allergic donors, Der p or Der f extract, 7 days culture, FIG. 1B
[2] = test system: PBMC from ragweed-allergic donors (allergen-specific CD4 T cells); test: Ex vivo human T cell-proliferation assay, ragweed extracts (short and giant); type: cell-based; conditions: PBMC of two ragweed-allergic donors, short and giant ragweed extract, 7 days culture, FIG. 2B
[3] = test system: PBMC from allergic donors (T cells, ConA pan-T cell mitogen); test: T cell proliferative responses induced by ConA; type: cell-based, human; conditions: specificity control
[4] = test system: invariant chain (Ii) degradation by cathepsin S in PBMC; test: Monitoring cathepsin S inhibition in human blood: p10Ii fragment accumulation (Western blot); type: cell-based; conditions: PBMC from human blood, incubation for 24 h, SDS-PAGE / Western blot

`CC(C)C[C@H](NC(=O)N1CCOCC1)C(=O)N[C@H](/C=C/S(=O)(=O)c1ccccc1)CCc1ccccc1` [LHVS, 4-morpholinecarboxamide, N-[(1S)-3-methyl-1-[[[(1S,2E)-1-(2-phenylethyl)-3-(phenylsulfonyl)-2-propenyl]amino]carbonyl]butyl]-] was tested, and the “T cell proliferation (3H-thymidine incorporation) induced by HDM extracts” value [1] was “strongly inhibited”, the “T cell proliferation (3H-thymidine incorporation) induced by ragweed extracts” value [2] was “strongly inhibited” and the “T cell proliferative responses induced by ConA” value ([3]; HDM-allergic donors) was “not affected”. For the same compound, the “T cell proliferative responses induced by ConA” value ([3]; ragweed-allergic donors) was “not affected” and the “p10Ii fragment of invariant chain (block in degradation of Ii)” value [4] was “the p10Ii fragment was seen”.
